ChEMBL document CHEMBL1127453, “Benzimidazole ribonucleosides: design, synthesis, and antiviral activity of certain 2-(alkylthio)- and 2-(benzylthio)-5,6-dichloro-1-(beta-D-ribofuranosyl)benzimidazoles” (J Med Chem, 1994)

system: KB; experiment: The inhibition of KB cell growth was determined; format: functional, cell-based; settings: Homo sapiens

| SMILES | IC50 |
| --- | --- |
| COc1ccc(CSc2nc3cc(Cl)c(Cl)cc3n2C2O[C@H](CO)[C@@H](O)[C@H]2O)cc1 (some centres not stated) | 41 µM |
| OC[C@H]1OC(n2c(SCc3ccc(Br)cc3)nc3cc(Cl)c(Cl)cc32)[C@H](O)[C@@H]1O (some centres not stated) | 20 µM |
| Cc1cccc(CSc2nc3cc(Cl)c(Cl)cc3n2C2O[C@H](CO)[C@@H](O)[C@H]2O)c1 (some centres not stated) | 30 µM |
| O=[N+]([O-])c1ccc(CSc2nc3cc(Cl)c(Cl)cc3n2C2O[C@H](CO)[C@@H](O)[C@H]2O)cc1 (some centres not stated) | 30 µM |
| OC[C@H]1OC(n2c(SCc3cccc(Cl)c3)nc3cc(Cl)c(Cl)cc32)[C@H](O)[C@@H]1O (some centres not stated) | 19 µM |
| CC(C)(C)c1ccc(CSc2nc3cc(Cl)c(Cl)cc3n2C2O[C@H](CO)[C@@H](O)[C@H]2O)cc1 (some centres not stated) | 50 µM |
| C#CCSc1nc2cc(Cl)c(Cl)cc2n1C1O[C@H](CO)[C@@H](O)[C@H]1O (some centres not stated) | 60 µM |
| OC[C@H]1OC(n2c(SCc3ccccc3Cl)nc3cc(Cl)c(Cl)cc32)[C@H](O)[C@@H]1O (some centres not stated) | 30 µM |
| Nc1nc2c(ncn2COCCO)c(=O)[nH]1 [ACYCLOVIR] | > 100 µM |
| N#CCSc1nc2cc(Cl)c(Cl)cc2n1C1O[C@H](CO)[C@@H](O)[C@H]1O (some centres not stated) | > 100 µM |
| OC[C@H]1OC(n2c(SCc3cccc(C(F)(F)F)c3)nc3cc(Cl)c(Cl)cc32)[C@H](O)[C@@H]1O (some centres not stated) | 15 µM |
| C=CCSc1nc2cc(Cl)c(Cl)cc2n1C1O[C@H](CO)[C@@H](O)[C@H]1O (some centres not stated) | 68 µM |
| OC[C@H]1O[C@@H](n2cnc3cc(Cl)c(Cl)cc32)[C@H](O)[C@@H]1O [DICHLORORIBOBENZIMIDAZOLE] | 100 µM |
| O=[N+]([O-])c1cccc(CSc2nc3cc(Cl)c(Cl)cc3n2C2O[C@H](CO)[C@@H](O)[C@H]2O)c1 (some centres not stated) | 25 µM |

system: Human betaherpesvirus 5; experiment: Activity against human cytomegalovirus (HCMV) using plaque reduction assay; format: functional, organism-based; settings: not given

| SMILES | IC50 |
| --- | --- |
| OC[C@H]1OC(n2c(SCc3ccc(F)cc3)nc3cc(Cl)c(Cl)cc32)[C@H](O)[C@@H]1O (some centres not stated) | 30 µM |
| O=C(O)P(=O)(O)O [FOSCARNET] | 39 µM |
| CSc1nc2cc(Cl)c(Cl)cc2n1[C@@H]1O[C@@H](CO)[C@@H](O)[C@H]1O | > 100 µM |
| CS(=O)(=O)c1nc2cc(Cl)c(Cl)cc2n1C1O[C@H](CO)[C@@H](O)[C@H]1O (some centres not stated) | 10 µM |
| COc1ccc(CSc2nc3cc(Cl)c(Cl)cc3n2C2O[C@H](CO)[C@@H](O)[C@H]2O)cc1 (some centres not stated) | 40 µM |
| OC[C@H]1OC(n2c(SCc3ccc(Br)cc3)nc3cc(Cl)c(Cl)cc32)[C@H](O)[C@@H]1O (some centres not stated) | 30 µM |
| Nc1nc2c(ncn2COC(CO)CO)c(=O)[nH]1 [GANCICLOVIR] | 7.4 µM |
| Cc1cccc(CSc2nc3cc(Cl)c(Cl)cc3n2C2O[C@H](CO)[C@@H](O)[C@H]2O)c1 (some centres not stated) | 40 µM |
| O=[N+]([O-])c1ccc(CSc2nc3cc(Cl)c(Cl)cc3n2C2O[C@H](CO)[C@@H](O)[C@H]2O)cc1 (some centres not stated) | 40 µM |
| OC[C@H]1OC(n2c(SCc3ccc(Cl)c(Cl)c3)nc3cc(Cl)c(Cl)cc32)[C@H](O)[C@@H]1O (some centres not stated) | 28 µM |
| OC[C@H]1OC(n2c(SCc3cccc(Cl)c3)nc3cc(Cl)c(Cl)cc32)[C@H](O)[C@@H]1O (some centres not stated) | 25 µM |
| CC(C)(C)c1ccc(CSc2nc3cc(Cl)c(Cl)cc3n2C2O[C@H](CO)[C@@H](O)[C@H]2O)cc1 (some centres not stated) | 20 µM |
| OC[C@@H]1O[C@@H](n2c(S)nc3cc(Cl)c(Cl)cc32)[C@H](O)[C@@H]1O | > 100 µM |
| C#CCSc1nc2cc(Cl)c(Cl)cc2n1C1O[C@H](CO)[C@@H](O)[C@H]1O (some centres not stated) | 25 µM |
| OC[C@H]1OC(n2c(SCc3ccccc3Cl)nc3cc(Cl)c(Cl)cc32)[C@H](O)[C@@H]1O (some centres not stated) | 40 µM |
| Nc1nc2c(ncn2COCCO)c(=O)[nH]1 [ACYCLOVIR] | 86 µM |
| N#CCSc1nc2cc(Cl)c(Cl)cc2n1C1O[C@H](CO)[C@@H](O)[C@H]1O (some centres not stated) | 30 µM |
| OC[C@H]1OC(n2c(SCc3cccc(C(F)(F)F)c3)nc3cc(Cl)c(Cl)cc32)[C@H](O)[C@@H]1O (some centres not stated) | 40 µM |
| C=CCSc1nc2cc(Cl)c(Cl)cc2n1C1O[C@H](CO)[C@@H](O)[C@H]1O (some centres not stated) | > 100 µM |
| OC[C@H]1O[C@@H](n2cnc3cc(Cl)c(Cl)cc32)[C@H](O)[C@@H]1O [DICHLORORIBOBENZIMIDAZOLE] | 42 µM |
| Cc1ccc(CSc2nc3cc(Cl)c(Cl)cc3n2C2O[C@H](CO)[C@@H](O)[C@H]2O)cc1 (some centres not stated) | 30 µM |
| O=[N+]([O-])c1cccc(CSc2nc3cc(Cl)c(Cl)cc3n2C2O[C@H](CO)[C@@H](O)[C@H]2O)c1 (some centres not stated) | 40 µM |
| OC[C@H]1OC(n2c(SCc3ccc(Cl)cc3)nc3cc(Cl)c(Cl)cc32)[C@H](O)[C@@H]1O (some centres not stated) | > 100 µM |

system: HFF cells (Homo sapiens); experiment: Tested for the visual cytotoxicity on HFF cells at the time of human cytomegalovirus (HCMV) plaque enumeration; settings: not given

| SMILES | IC50 |
| --- | --- |
| OC[C@H]1OC(n2c(SCc3ccc(F)cc3)nc3cc(Cl)c(Cl)cc32)[C@H](O)[C@@H]1O (some centres not stated) | 21 µM |
| O=C(O)P(=O)(O)O [FOSCARNET] | > 100 µM |
| CSc1nc2cc(Cl)c(Cl)cc2n1[C@@H]1O[C@@H](CO)[C@@H](O)[C@H]1O | > 100 µM |
| CS(=O)(=O)c1nc2cc(Cl)c(Cl)cc2n1C1O[C@H](CO)[C@@H](O)[C@H]1O (some centres not stated) | 10 µM |
| COc1ccc(CSc2nc3cc(Cl)c(Cl)cc3n2C2O[C@H](CO)[C@@H](O)[C@H]2O)cc1 (some centres not stated) | 66 µM |
| OC[C@H]1OC(n2c(SCc3ccc(Br)cc3)nc3cc(Cl)c(Cl)cc32)[C@H](O)[C@@H]1O (some centres not stated) | 32 µM |
| Nc1nc2c(ncn2COC(CO)CO)c(=O)[nH]1 [GANCICLOVIR] | > 100 µM |
| Cc1cccc(CSc2nc3cc(Cl)c(Cl)cc3n2C2O[C@H](CO)[C@@H](O)[C@H]2O)c1 (some centres not stated) | 32 µM |
| O=[N+]([O-])c1ccc(CSc2nc3cc(Cl)c(Cl)cc3n2C2O[C@H](CO)[C@@H](O)[C@H]2O)cc1 (some centres not stated) | 32 µM |
| OC[C@H]1OC(n2c(SCc3ccc(Cl)c(Cl)c3)nc3cc(Cl)c(Cl)cc32)[C@H](O)[C@@H]1O (some centres not stated) | 32 µM |
| OC[C@H]1OC(n2c(SCc3cccc(Cl)c3)nc3cc(Cl)c(Cl)cc32)[C@H](O)[C@@H]1O (some centres not stated) | 21 µM |
| CC(C)(C)c1ccc(CSc2nc3cc(Cl)c(Cl)cc3n2C2O[C@H](CO)[C@@H](O)[C@H]2O)cc1 (some centres not stated) | 32 µM |
| OC[C@@H]1O[C@@H](n2c(S)nc3cc(Cl)c(Cl)cc32)[C@H](O)[C@@H]1O | 100 µM |
| C#CCSc1nc2cc(Cl)c(Cl)cc2n1C1O[C@H](CO)[C@@H](O)[C@H]1O (some centres not stated) | 100 µM |
| OC[C@H]1OC(n2c(SCc3ccccc3Cl)nc3cc(Cl)c(Cl)cc32)[C@H](O)[C@@H]1O (some centres not stated) | 32 µM |
| Nc1nc2c(ncn2COCCO)c(=O)[nH]1 [ACYCLOVIR] | > 100 µM |
| N#CCSc1nc2cc(Cl)c(Cl)cc2n1C1O[C@H](CO)[C@@H](O)[C@H]1O (some centres not stated) | 100 µM |
| OC[C@H]1OC(n2c(SCc3cccc(C(F)(F)F)c3)nc3cc(Cl)c(Cl)cc32)[C@H](O)[C@@H]1O (some centres not stated) | 32 µM |
| C=CCSc1nc2cc(Cl)c(Cl)cc2n1C1O[C@H](CO)[C@@H](O)[C@H]1O (some centres not stated) | 24 µM |
| OC[C@H]1O[C@@H](n2cnc3cc(Cl)c(Cl)cc32)[C@H](O)[C@@H]1O [DICHLORORIBOBENZIMIDAZOLE] | 24 µM |
| Cc1ccc(CSc2nc3cc(Cl)c(Cl)cc3n2C2O[C@H](CO)[C@@H](O)[C@H]2O)cc1 (some centres not stated) | 32 µM |
| O=[N+]([O-])c1cccc(CSc2nc3cc(Cl)c(Cl)cc3n2C2O[C@H](CO)[C@@H](O)[C@H]2O)c1 (some centres not stated) | 32 µM |
| OC[C@H]1OC(n2c(SCc3ccc(Cl)cc3)nc3cc(Cl)c(Cl)cc32)[C@H](O)[C@@H]1O (some centres not stated) | 100 µM |

system: Human alphaherpesvirus 1; experiment: Tested for anti-viral activity against Herpes simplex virus type-1 using ELISA.; format: functional, organism-based; settings: not given

| SMILES | IC50 |
| --- | --- |
| OC[C@H]1OC(n2c(SCc3ccc(F)cc3)nc3cc(Cl)c(Cl)cc32)[C@H](O)[C@@H]1O (some centres not stated) | > 30 µM |
| COc1ccc(CSc2nc3cc(Cl)c(Cl)cc3n2C2O[C@H](CO)[C@@H](O)[C@H]2O)cc1 (some centres not stated) | > 100 µM |
| OC[C@H]1OC(n2c(SCc3ccc(Br)cc3)nc3cc(Cl)c(Cl)cc32)[C@H](O)[C@@H]1O (some centres not stated) | 30 µM |
| Cc1cccc(CSc2nc3cc(Cl)c(Cl)cc3n2C2O[C@H](CO)[C@@H](O)[C@H]2O)c1 (some centres not stated) | 38 µM |
| O=[N+]([O-])c1ccc(CSc2nc3cc(Cl)c(Cl)cc3n2C2O[C@H](CO)[C@@H](O)[C@H]2O)cc1 (some centres not stated) | 40 µM |
| OC[C@H]1OC(n2c(SCc3ccc(Cl)c(Cl)c3)nc3cc(Cl)c(Cl)cc32)[C@H](O)[C@@H]1O (some centres not stated) | > 30 µM |
| OC[C@H]1OC(n2c(SCc3cccc(Cl)c3)nc3cc(Cl)c(Cl)cc32)[C@H](O)[C@@H]1O (some centres not stated) | 70 µM |
| CC(C)(C)c1ccc(CSc2nc3cc(Cl)c(Cl)cc3n2C2O[C@H](CO)[C@@H](O)[C@H]2O)cc1 (some centres not stated) | 20 µM |
| C#CCSc1nc2cc(Cl)c(Cl)cc2n1C1O[C@H](CO)[C@@H](O)[C@H]1O (some centres not stated) | 100 µM |
| OC[C@H]1OC(n2c(SCc3ccccc3Cl)nc3cc(Cl)c(Cl)cc32)[C@H](O)[C@@H]1O (some centres not stated) | 60 µM |
| Nc1nc2c(ncn2COCCO)c(=O)[nH]1 [ACYCLOVIR] | 1.7 µM |
| N#CCSc1nc2cc(Cl)c(Cl)cc2n1C1O[C@H](CO)[C@@H](O)[C@H]1O (some centres not stated) | > 100 µM |
| OC[C@H]1OC(n2c(SCc3cccc(C(F)(F)F)c3)nc3cc(Cl)c(Cl)cc32)[C@H](O)[C@@H]1O (some centres not stated) | 40 µM |
| C=CCSc1nc2cc(Cl)c(Cl)cc2n1C1O[C@H](CO)[C@@H](O)[C@H]1O (some centres not stated) | > 100 µM |
| OC[C@H]1O[C@@H](n2cnc3cc(Cl)c(Cl)cc32)[C@H](O)[C@@H]1O [DICHLORORIBOBENZIMIDAZOLE] | 30 µM |
| Cc1ccc(CSc2nc3cc(Cl)c(Cl)cc3n2C2O[C@H](CO)[C@@H](O)[C@H]2O)cc1 (some centres not stated) | > 30 µM |
| O=[N+]([O-])c1cccc(CSc2nc3cc(Cl)c(Cl)cc3n2C2O[C@H](CO)[C@@H](O)[C@H]2O)c1 (some centres not stated) | 50 µM |
| OC[C@H]1OC(n2c(SCc3ccc(Cl)cc3)nc3cc(Cl)c(Cl)cc32)[C@H](O)[C@@H]1O (some centres not stated) | > 30 µM |

system: Human betaherpesvirus 5; experiment: Tested for the activity against human cytomegalovirus (HCMV) using yield reduction assay; format: functional; settings: not given

| SMILES | IC90 |
| --- | --- |
| Nc1nc2c(ncn2COC(CO)CO)c(=O)[nH]1 [GANCICLOVIR] | 1.6 µM |
| Nc1nc2c(ncn2COCCO)c(=O)[nH]1 [ACYCLOVIR] | 85 µM |
| N#CCSc1nc2cc(Cl)c(Cl)cc2n1C1O[C@H](CO)[C@@H](O)[C@H]1O (some centres not stated) | 10 µM |
| OC[C@H]1O[C@@H](n2cnc3cc(Cl)c(Cl)cc32)[C@H](O)[C@@H]1O [DICHLORORIBOBENZIMIDAZOLE] | 19 µM |
